Data from patent publication US6143769A, “Phenylacetic acid benzylamides” (Karl Thomae GmbH, priority 1983, dated 2000).

How the values were obtained:
glucose [1] = assay: Study 2: whole blood glucose, 2 mg AG-EE 388 ZW capsule or tablet, crossover; type: in vivo, human
Text: Blood samples were taken at various times.

glucose [2] = assay: Study 5: plasma glucose after 1 mg AG-EE 388 ZW i.v., oral solution or capsule; type: in vivo, human
Text: Blood samples were taken at different times.

SMILES: CCOc1cc(CC(=O)NC(CC(C)C)c2ccccc2N2CCCCC2)ccc1C(=O)O (racemic) [AG-EE 388 ZW, 2-ethoxy-4-[N-[1-(2-piperidino-phenyl)-3-methyl-1-butyl]aminocarbonylmethyl]-benzoic acid]
- Glucose (mean) (glucose [1]; 2 mg capsule, 0 h): 5.0 mmol/L
- Glucose (mean) (glucose [1]; 2 mg capsule, 0.20 h): 5.0 mmol/L
- Glucose (mean) (glucose [1]; 2 mg capsule, 0.33 h): 4.9 mmol/L
- Glucose (mean) (glucose [1]; 2 mg capsule, 0.50 h): 4.8 mmol/L
- Glucose (mean) (glucose [1]; 2 mg capsule, 0.75 h): 4.6 mmol/L
- Glucose (mean) (glucose [1]; 2 mg capsule, 1.00 h): 4.4 mmol/L
- Glucose (mean) (glucose [1]; 2 mg capsule, 1.50 h): 3.9 mmol/L
- Glucose (mean) (glucose [1]; 2 mg capsule, 2.00 h (breakfast)): 3.7 mmol/L
- Glucose (mean) (glucose [1]; 2 mg capsule, 3.00 h): 4.4 mmol/L
- Glucose (mean) (glucose [1]; 2 mg capsule, 4.00 h): 4.0 mmol/L
- Glucose (mean) (glucose [1]; 2 mg capsule, 5.00 h (lunch)): 4.2 mmol/L
- Glucose (mean) (glucose [1]; 2 mg capsule, 6.00 h): 4.8 mmol/L
- Glucose (mean) (glucose [1]; 2 mg capsule, 9.00 h): 5.0 mmol/L
- Glucose (mean) (glucose [1]; 2 mg capsule, 24.00 h): 4.9 mmol/L
- Time at which glucose levels return to original level (glucose [1]; 2 mg p.o.): 6 h
- Glucose (mean) (glucose [1]; 2 mg tablet, 0 h): 4.9 mmol/L
- Glucose (mean) (glucose [1]; 2 mg tablet, 0.20 h): 5.0 mmol/L
- Glucose (mean) (glucose [1]; 2 mg tablet, 0.33 h): 4.9 mmol/L
- Glucose (mean) (glucose [1]; 2 mg tablet, 0.50 h): 4.6 mmol/L
- Glucose (mean) (glucose [1]; 2 mg tablet, 0.75 h): 4.4 mmol/L
- Glucose (mean) (glucose [1]; 2 mg tablet, 1.00 h): 4.1 mmol/L
- Glucose (mean) (glucose [1]; 2 mg tablet, 1.50 h): 3.8 mmol/L
- Glucose (mean) (glucose [1]; 2 mg tablet, 2.00 h (breakfast)): 3.8 mmol/L
- Glucose (mean) (glucose [1]; 2 mg tablet, 3.00 h): 4.7 mmol/L
- Glucose (mean) (glucose [1]; 2 mg tablet, 4.00 h): 4.2 mmol/L
- Glucose (mean) (glucose [1]; 2 mg tablet, 5.00 h (lunch)): 4.2 mmol/L
- Glucose (mean) (glucose [1]; 2 mg tablet, 6.00 h): 5.2 mmol/L
- Glucose (mean) (glucose [1]; 2 mg tablet, 9.00 h): 5.0 mmol/L
- Glucose (mean) (glucose [1]; 2 mg tablet, 24.00 h): 4.8 mmol/L
- Glucose (mean) (glucose [2]; 1 mg i.v., 0.00 h): 6.10 mmol/L
- Glucose (mean) (glucose [2]; 1 mg p.o. capsule, 0.00 h): 5.32 mmol/L
- Glucose (mean) (glucose [2]; 1 mg p.o. solution, 0.00 h): 5.85 mmol/L
- Glucose (mean) (glucose [2]; i.v., 0.08 h): 6.54 mmol/L
- Glucose (mean) (glucose [2]; i.v., 0.17 h): 6.46 mmol/L
- Glucose (mean) (glucose [2]; i.v., 0.25 h): 6.46 mmol/L
- Glucose (mean) (glucose [2]; i.v., 0.28 h): 6.46 mmol/L
- Glucose (mean) (glucose [2]; i.v., 0.33 h): 6.40 mmol/L
- Glucose (mean) (glucose [2]; i.v., 0.42 h): 6.01 mmol/L
- Glucose (mean) (glucose [2]; i.v., 0.50 h): 5.86 mmol/L
- Glucose (mean) (glucose [2]; i.v., 0.75 h): 5.14 mmol/L
- Glucose (mean) (glucose [2]; i.v., 1.00 h): 4.57 mmol/L
- Glucose (mean) (glucose [2]; i.v., 1.50 h): 4.55 mmol/L
- Glucose (mean) (glucose [2]; i.v., 2.00 h (breakfast)): 5.11 mmol/L
- Glucose (mean) (glucose [2]; i.v., 2.50 h): 7.14 mmol/L
- Glucose (mean) (glucose [2]; i.v., 3.00 h): 6.31 mmol/L
- Glucose (mean) (glucose [2]; i.v., 4.00 h): 5.58 mmol/L
- Glucose (mean) (glucose [2]; i.v., 5.00 h (lunch)): 5.48 mmol/L
- Glucose (mean) (glucose [2]; i.v., 6.00 h): 6.53 mmol/L
- Glucose (mean) (glucose [2]; i.v., 9.00 h): 6.49 mmol/L
- Glucose (mean) (glucose [2]; i.v., 24.00 h): 6.24 mmol/L
- Glucose (mean) (glucose [2]; p.o. capsule, 0.25 h): 6.08 mmol/L
- Glucose (mean) (glucose [2]; p.o. capsule, 0.50 h): 5.87 mmol/L
- Glucose (mean) (glucose [2]; p.o. capsule, 0.75 h): 5.85 mmol/L
- Glucose (mean) (glucose [2]; p.o. capsule, 1.00 h): 5.57 mmol/L
- Glucose (mean) (glucose [2]; p.o. capsule, 1.50 h): 5.24 mmol/L
- Glucose (mean) (glucose [2]; p.o. capsule, 2.00 h (breakfast)): 5.04 mmol/L
- Glucose (mean) (glucose [2]; p.o. capsule, 3.00 h): 5.04 mmol/L
- Glucose (mean) (glucose [2]; p.o. capsule, 4.00 h): 4.43 mmol/L
- Glucose (mean) (glucose [2]; p.o. capsule, 5.00 h (lunch)): 4.71 mmol/L
- Glucose (mean) (glucose [2]; p.o. capsule, 6.00 h): 5.41 mmol/L
- Glucose (mean) (glucose [2]; p.o. capsule, 9.00 h): 5.42 mmol/L
- Glucose (mean) (glucose [2]; p.o. capsule, 24.00 h): 5.44 mmol/L
- Glucose (mean) (glucose [2]; p.o. solution, 0.25 h): 6.13 mmol/L
- Glucose (mean) (glucose [2]; p.o. solution, 0.50 h): 5.99 mmol/L
- Glucose (mean) (glucose [2]; p.o. solution, 0.75 h): 5.83 mmol/L
- Glucose (mean) (glucose [2]; p.o. solution, 1.00 h): 5.77 mmol/L
- Glucose (mean) (glucose [2]; p.o. solution, 1.50 h): 5.40 mmol/L
- Glucose (mean) (glucose [2]; p.o. solution, 2.00 h (breakfast)): 5.11 mmol/L
- Glucose (mean) (glucose [2]; p.o. solution, 3.00 h): 5.40 mmol/L
- Glucose (mean) (glucose [2]; p.o. solution, 4.00 h): 4.86 mmol/L
- Glucose (mean) (glucose [2]; p.o. solution, 5.00 h (lunch)): 5.12 mmol/L
- Glucose (mean) (glucose [2]; p.o. solution, 6.00 h): 5.60 mmol/L
- Glucose (mean) (glucose [2]; p.o. solution, 9.00 h): 5.68 mmol/L
- Glucose (mean) (glucose [2]; p.o. solution, 24.00 h): 5.60 mmol/L
